The test relates to renal tubular cells (RTC). Kind of test: In vitro inflammation model: renal tubular cells co-cultivated with bacterial lysate-activated leukocytes. In kind it is cell-based, rat. As for the experimental part:
Kidneys from 1-3 day old rats were excised under aseptic conditions. The tissue was blended and dissociated by collagenase treatment (0.5%, 30 min at 37° C.). The final suspension was centrifuged for 5 min at 50 g. The pellet was resuspended in about 10 ml of DMEM/F12 (Gibco, USA) supplemented with 10% FCS (Gibco, USA) and kept for 2 min, after which the supernatant was transferred to another tube and the pellet was repeatedly resuspended. After 10 min, the renal tubules were pelleted and dissociated cells remaining in the suspension were discarded. The pellet was resuspended in DMEM/F12 with 10% FCS and seeded onto 24-well plates or onto coverslips placed in 35-mm glass-bottom Petri dishes.
E. coli strain No. 85 was cultured overnight in a cultivation medium containing 1% tryptone, 0.5% yeast extract and 1% NaCl (Sigma-Aldrich, USA). The medium, containing roughly 10^9 colony-forming units (CFU) per ml, was pelleted at 300 g for 3 min. The bacterial lysate was prepared by diluting 30 ml of an overnight (ON) culture and diluting the precipitate in 3 ml of 0.9% NaCl followed by autoclaving for 1.5 hr at 120° C.
5 ml heparinized blood collected from the jugular vein of adult male rats was carefully layered over 5 ml of Ficoll-Urografin (density of 1.077 g/cm^3), and centrifuged for 30 min at 200 g. This procedure results in erythrocyte pelleting, while the mononuclear fraction of leukocytes forms an interphase ring on the Ficoll surface, which was carefully collected. Leukocytes were transferred into another tube and centrifuged for 3 min at 200 g. The resultant pellet was resuspended in 5 ml of DMEM/F12. After cell counting in a hemocytometer, the cells were diluted to a final concentration of about 1×10^5 cells per ml.
In a two-day old renal cell culture, the medium was substituted with DMEM/F12 (400 μl per well, 1600 μl per dish), supplemented with (depending on the purpose): GSK-3β inhibitor LiCl (9 mM) (Sigma-Aldrich, USA), water-soluble antioxidant Trolox (50 μM, 100 μM) (Sigma-Aldrich, USA), MTAs 10-(6-plastoquinonyl)decyl-triphenylphosphonium (SkQ1), synthesized according to Antonenko et al. (2008) Biochemistry (Mosc) 73:1273-87), 10 nM, 100 nM), and 10-(6′-plastoquinonyl) decylrhodamine 19 SkQR1), synthesized according to Antonenko (2008), (1 nM, 10 nM, or 100 nM). Renal cells were incubated for 2 hr in this medium, followed by supplementation with leukocytes or neutrophils in DMEM/F12, or DMEM/F12, alone, in the control sample (400 μl per well, 1600 μl per dish). Simultaneously, the bacterial lysate or lipopolysaccharide (100 ng/ml, LPS, Sigma-Aldrich, USA) solution in DMEM/F12 and DMEM/F12 alone in the control sample (100 μl per well, 400 μl per dish) were added. Renal cells, leukocytes (neutrophils) were co-cultivated for 24 or 48 hr with bacterial lysate or LPS. Cell death (both necrotic and apoptotic) rate was evaluated using Annexin-V FITC Kit (Invitrogen, USA).
The ROS-sensitive fluorescent probe 2,7-DCF-DA (Molecular Probes, USA) dissolved in DMEM/F12 without bicarbonate (final concentration 10 μM) was added to renal cells (500 μl per well of 24-well plate, 2 ml per dish) and incubated for 15 min at 37° C. followed by a wash with DMEM/F12 without bicarbonate. MDA was determined as in (Mihara and Uchiyama (1978) Anal. Biochem. 86:271-8). Fluorescent probe, DAF-2-DA (Calbiochem, San Diego, Calif., USA) was used for NO determination in living cells. The procedure was the same as for 2,7-DCF-DA. The nitrite/nitrate concentration (as products of NO oxidation) in culture media was determined using Nitrite/Nitrate Assay Kit (Sigma-Aldrich, USA). TNFα was determined using the kit Rat TNFα ELISA Ready-SET-Go (Ebioscience, USA).
Renal cells were imaged with an LSM510 inverted confocal microscope (Carl Zeiss Inc., Jena, Germany) with excitation at 488 nm and emission collected at 500 nm-530 nm with a pinhole diameter of 150 μm. Images were processed using ImageJ software (NIH, Bethesda, Md., USA).

Consider one compound from patent US20160243136A1, “PHARMACEUTICAL FORMULATIONS CONTAINING MITOCHONDRIALLY TARGETED ANTIOXIDANTS” (Mitotech SA, priority 2013, published 2016).

As for `CC1=C(C)C(=O)C(CCCCCCCCCC[P+](c2ccccc2)(c2ccccc2)c2ccccc2)=CC1=O` [SkQ1, 10-(6-plastoquinonyl)decyl-triphenylphosphonium], where the note is “10 nM, pretreatment 2 hr, co-cultivation with activated leukocytes”, the “ROS production in renal cells (DCF fluorescence)” value is listed as “suppression of ROS production after co-cultivation with activated leukocytes to levels close to those observed on controls”. Further, the “renal cell death (Annexin V-positive)” value (48 hr exposure to activated leukocytes, pre-incubation with drug) was “more pronounced than that afforded by the traditional water-soluble antioxidant, Trolox”.
